Patent US20220313698A1, “MODULATORS OF CYSTIC FIBROSIS TRANSMEMBRANE CONDUCTANCE REGULATOR” (Vertex Pharmaceuticals Incorporated, priority 2019, published 2022)
pEC50: −log10 of the molar value.

Target: CFTR-mediated chloride transport (Homo sapiens, UniProt P13569)
Test: Corrector Assay A - membrane potential dye assay (enteroid cells)
Details: for Corrector Assay A % activity: % of chloride transport of triple combination control (1 μM (14S)-dispiro macrocycle + 3 μM tezacaftor + 300 nM ivacaftor); for pEC50: read-out: Corrector Assay A EC50, human intestinal enteroid cells, 18-24 h incubation, acute 10 μM forskolin + 300 nM ivacaftor

| SMILES | Corrector Assay A % activity | pEC50 |
| --- | --- | --- |
| CC(C)(C)c1ccnc(C2CC[C@@H]3CN(c4nc(C(C)(C)C)ncc4C(=O)NS(=O)(=O)c4cccc(n4)N2)C(C)(C)C3)c1 (single isomer, unassigned) [Compound 1] | + (+ is <30%) | – |
| CC(C)(C)c1ccc2c(n1)N1C[C@@H](CCC(CC(O)CO)Nc3cccc(n3)S(=O)(=O)NC2=O)CC1(C)C (single isomer, unassigned) [Compound 30] | ++ (++ is 30-60%) | > 6.00 |
| CC(C)(C)c1ccc2c(n1)N1C[C@@H](CCC(CC(O)CO)Nc3cccc(n3)S(=O)(=O)NC2=O)CC1(C)C (single isomer, unassigned) [Compound 31] | ++ (++ is 30-60%) | > 6.00 |
| CC(C)(C)c1ccc2c(n1)N1C[C@@H](CCC(CC(O)CO)Nc3cccc(n3)S(=O)(=O)NC2=O)CC1(C)C (single isomer, unassigned) [Compound 32] | +++ (+++ is >60%) | > 6.00 |
| CC(C)(C)c1ccc2c(n1)N1C[C@@H](CCC(CC(O)CO)Nc3cccc(n3)S(=O)(=O)NC2=O)CC1(C)C (single isomer, unassigned) [Compound 33] | +++ (+++ is >60%) | > 6.00 |
| C=CCC1CC[C@@H]2CN(c3nc(C(C)(C)C)ccc3C(=O)NS(=O)(=O)c3cccc(n3)N1)C(C)(C)C2 (single isomer, unassigned) [Compound 34] | +++ (+++ is >60%) | > 6.00 |
| C=CCC1CC[C@@H]2CN(c3nc(C(C)(C)C)ccc3C(=O)NS(=O)(=O)c3cccc(n3)N1)C(C)(C)C2 (single isomer, unassigned) [Compound 35] | ++ (++ is 30-60%) | > 6.00 |
| CC(C)(C)c1ccc2c(n1)N1C[C@@H](CCC(c3cc(C(C)(C)O)ccn3)Nc3cccc(n3)S(=O)(=O)NC2=O)CC1(C)C (single isomer, unassigned) [Compound 36] | +++ (+++ is >60%) | > 6.00 |
| CC(C)(C)c1ccc([C@@H]2CC[C@@H]3CN(c4nc(C(C)(C)C)ccc4C(=O)NS(=O)(=O)c4cccc(n4)N2)C(C)(C)C3)cc1 (single isomer, unassigned) [Compound 37] | ++ (++ is 30-60%) | > 6.00 |
| CC(C)(C)c1ccc([C@@H]2CC[C@@H]3CN(c4nc(C(C)(C)C)ccc4C(=O)NS(=O)(=O)c4cccc(n4)N2)C(C)(C)C3)cc1 (single isomer, unassigned) [Compound 38] | +++ (+++ is >60%) | > 6.00 |
| CC(C)(C)c1ccc2c(n1)N1C[C@@H](CCC(c3ccc(C4COC4)cn3)Nc3cccc(n3)S(=O)(=O)NC2=O)CC1(C)C (single isomer, unassigned) [Compound 39] | +++ (+++ is >60%) | > 6.00 |
| CC(C)(C)c1cccc(C2CC[C@@H]3CN(c4nc(C(C)(C)C)ccc4C(=O)NS(=O)(=O)c4cccc(n4)N2)C(C)(C)C3)c1 (single isomer, unassigned) [Compound 40] | ++ (++ is 30-60%) | > 6.00 |
| CC(C)(C)c1cccc(C2CC[C@@H]3CN(c4nc(C(C)(C)C)ccc4C(=O)NS(=O)(=O)c4cccc(n4)N2)C(C)(C)C3)c1 (single isomer, unassigned) [Compound 41] | +++ (+++ is >60%) | > 6.00 |
| CC1(C)CC(C2CC[C@@H]3CN(c4nc(C(C)(C)C)ccc4C(=O)NS(=O)(=O)c4cccc(n4)N2)C(C)(C)C3)CC(C)(C)O1 (single isomer, unassigned) [Compound 42] | ++ (++ is 30-60%) | > 6.00 |
| CC1(C)CC(C2CC[C@@H]3CN(c4nc(C(C)(C)C)ccc4C(=O)NS(=O)(=O)c4cccc(n4)N2)C(C)(C)C3)CC(C)(C)O1 (single isomer, unassigned) [Compound 43] | + (+ is <30%) | – |
| CC(C)(C)c1ccc2c(n1)N1C[C@@H](CCC(C)(c3ccccn3)Nc3cccc(n3)S(=O)(=O)NC2=O)CC1(C)C (single isomer, unassigned) [Compound 44] | ++ (++ is 30-60%) | > 6.00 |
| CC(C)(C)c1ccc2c(n1)N1C[C@@H](CCC(C)(c3ccccn3)Nc3cccc(n3)S(=O)(=O)NC2=O)CC1(C)C (single isomer, unassigned) [Compound 45] | ++ (++ is 30-60%) | > 6.00 |
| CC(C)(C)c1ccc2c(n1)N1C[C@@H](CCC(c3cc(Br)ccn3)Nc3cccc(n3)S(=O)(=O)NC2=O)CC1(C)C (single isomer, unassigned) [Compound 46] | +++ (+++ is >60%) | > 6.00 |
| CC(C)(C)c1ccc2c(n1)N1C[C@@H](CCC(c3cc(Br)ccn3)Nc3cccc(n3)S(=O)(=O)NC2=O)CC1(C)C (single isomer, unassigned) [Compound 47] | ++ (++ is 30-60%) | > 6.00 |
| CC(C)(C)c1ccc2c(n1)N1C[C@@H](CCC(c3cc(N)ccn3)Nc3cccc(n3)S(=O)(=O)NC2=O)CC1(C)C (single isomer, unassigned) [Compound 48] | ++ (++ is 30-60%) | 5.52 to 6.00 |
| CC(C)(C)c1ccc2c(n1)N1C[C@@H](CCC(c3cc(N)ccn3)Nc3cccc(n3)S(=O)(=O)NC2=O)CC1(C)C (single isomer, unassigned) [Compound 49] | ++ (++ is 30-60%) | > 6.00 |

Further lines, results first:

| Corrector Assay A % activity | pEC50 | SMILES |
| --- | --- | --- |
| +++ (+++ is >60%) | > 6.00 | CC(C)(C)c1ccnc(C2CC[C@@H]3CN(c4nc(C(C)(C)C)ncc4C(=O)NS(=O)(=O)c4cccc(n4)N2)C(C)(C)C3)c1 (single isomer, unassigned) [Compound 2] |
| +++ (+++ is >60%) | > 6.00 | Cc1cccc2cc3c(nc12)N1C[C@@H](CCC(c2cc(C(C)(C)C)ccn2)Nc2cccc(n2)S(=O)(=O)NC3=O)CC1(C)C (single isomer, unassigned) [Compound 3] |
| ++ (++ is 30-60%) | > 6.00 | Cc1cccc2cc3c(nc12)N1C[C@@H](CCC(c2cc(C(C)(C)C)ccn2)Nc2cccc(n2)S(=O)(=O)NC3=O)CC1(C)C (single isomer, unassigned) [Compound 4] |
| +++ (+++ is >60%) | > 6.00 | Cc1ccc2nc3c(cc2c1)C(=O)NS(=O)(=O)c1cccc(n1)N[C@H](c1cc(C(C)(C)C)ccn1)CC[C@@H]1CN3C(C)(C)C1 (single isomer, unassigned) [Compound 5] |
| ++ (++ is 30-60%) | > 6.00 | Cc1ccc2nc3c(cc2c1)C(=O)NS(=O)(=O)c1cccc(n1)N[C@H](c1cc(C(C)(C)C)ccn1)CC[C@@H]1CN3C(C)(C)C1 (single isomer, unassigned) [Compound 6] |
| +++ (+++ is >60%) | > 6.00 | Cc1ccc2cc3c(nc2c1)N1C[C@@H](CC[C@@H](c2cc(C(C)(C)C)ccn2)Nc2cccc(n2)S(=O)(=O)NC3=O)CC1(C)C (single isomer, unassigned) [Compound 7] |
| ++ (++ is 30-60%) | > 6.00 | Cc1ccc2cc3c(nc2c1)N1C[C@@H](CC[C@@H](c2cc(C(C)(C)C)ccn2)Nc2cccc(n2)S(=O)(=O)NC3=O)CC1(C)C (single isomer, unassigned) [Compound 8] |
| +++ (+++ is >60%) | > 6.00 | CC(C)(C)c1ccnc([C@@H]2CC[C@@H]3CN(c4nc5ccccc5cc4C(=O)NS(=O)(=O)c4cccc(n4)N2)C(C)(C)C3)c1 (single isomer, unassigned) [Compound 9] |
| ++ (++ is 30-60%) | > 6.00 | CC(C)(C)c1ccnc([C@@H]2CC[C@@H]3CN(c4nc5ccccc5cc4C(=O)NS(=O)(=O)c4cccc(n4)N2)C(C)(C)C3)c1 (single isomer, unassigned) [Compound 10] |
| ++ (++ is 30-60%) | > 6.00 | CC(O)CC1CC[C@@H]2CN(c3nc(C(C)(C)C)ccc3C(=O)NS(=O)(=O)c3cccc(n3)N1)C(C)(C)C2 (single isomer, unassigned) [Compound 20] |
| ++ (++ is 30-60%) | > 6.00 | CC(O)CC1CC[C@@H]2CN(c3nc(C(C)(C)C)ccc3C(=O)NS(=O)(=O)c3cccc(n3)N1)C(C)(C)C2 (single isomer, unassigned) [Compound 22] |
| +++ (+++ is >60%) | > 6.00 | CC(C)(O)/C=C/CC1CC[C@@H]2CN(c3nc(C(C)(C)C)ccc3C(=O)NS(=O)(=O)c3cccc(n3)N1)C(C)(C)C2 (single isomer, unassigned) [Compound 23] |
| ++ (++ is 30-60%) | > 6.00 | CC(C)(O)/C=C/CC1CC[C@@H]2CN(c3nc(C(C)(C)C)ccc3C(=O)NS(=O)(=O)c3cccc(n3)N1)C(C)(C)C2 (single isomer, unassigned) [Compound 24] |
| +++ (+++ is >60%) | > 6.00 | CC(C)(C)c1ccc2c(n1)N1C[C@@H](CCC(c3cc(C4COC4)ccn3)Nc3cccc(n3)S(=O)(=O)NC2=O)CC1(C)C (single isomer, unassigned) [Compound 25] |
| +++ (+++ is >60%) | > 6.00 | CC(C)(C)c1ccc2c(n1)N1C[C@@H](CCC(c3cc(C4COC4)ccn3)Nc3cccc(n3)S(=O)(=O)NC2=O)CC1(C)C (single isomer, unassigned) [Compound 26] |
| ++ (++ is 30-60%) | > 6.00 | C[C@@H](O)C[C@@H]1CC[C@@H]2CN(c3nc(C(C)(C)C)ccc3C(=O)NS(=O)(=O)c3cccc(n3)N1)C(C)(C)C2 (single isomer, unassigned) [Compound 27] |
| +++ (+++ is >60%) | > 6.00 | C[C@@H](O)C[C@@H]1CC[C@@H]2CN(c3nc(C(C)(C)C)ccc3C(=O)NS(=O)(=O)c3cccc(n3)N1)C(C)(C)C2 (single isomer, unassigned) [Compound 28] |
